Literature values, collected in US8742076B2, “Nemorubicin metabolite and analog reagents, antibody-drug conjugates and methods” (Genentech, Inc., priority 2008, dated 2014).

Experiments:
[1] = comparison with nemorubicin and doxorubicin
[2] = test system: tumor models

COc1cccc2c1C(=O)c1c(O)c3c(c(O)c1C2=O)C[C@@](O)(C(=O)CO)C[C@@H]3O[C@H]1C[C@H]2[C@H](O[C@@H]3[C@@H](OC)OCCN32)[C@H](C)O1 [PNU (159682), 3′-deamino-3″,4′-anhydro-[2″(S)-methoxy-3″(R)-oxy-4″-morpholinyl]doxorubicin]
cytotoxicity in vitro compared with nemorubicin and doxorubicin [1]: remarkably more cytotoxic than nemorubicin and doxorubicin | efficacy in in vivo tumor models [2]: effective
